Test results as given in US9365851B2, “Spalt-like transcription factor 4 (SALL4) and uses thereof” (National University of Singapore, priority 2011, dated 2016).
“Also recorded” adds a separate entry of the source. Read-outs that look alike come from different tables or passages of the source.

Key:
[1] = tested on: PTEN/AKT pathway; test: PTEN/AKT pathway expression in THP1 cells (Western blot); format: cell-based
From the text: To further evaluate the specificity of the SALL4/PTEN pathway, next investigated was whether wild type peptide treatment could affect the expression of PTEN and its downstream target, phosphorylated AKT (pAKT).

[2] = tested on: primary human AML cells; test: Viability / cell death of primary AML cells in culture (Annexin V/PI flow cytometry); format: cell-based; settings: for cell death rate: 96 h after first treatment, Chariot (Example 1)
Procedure: Whether a therapeutic effect could be achieved by using this wt peptide on primary AML samples was then tested. Ninety-six hours after the first treatment of peptides (wt, Mut, or Scr) or TSA in the primary AML cells collected from a patient, the remaining alive cells were measured by FACS analysis using Annexin V/PI staining. During the treatment the wt and control peptides (Mut or Scr) were re-introduced twice at the 24-hour and the 48-hour time points along with the Chariot (Active Motif) transfection agent. A significant effect of the wt peptide on the cell viability of primary AML cells was observed. While there was a 56% cell death rate with wt peptide treatment at the end of the fourth day, the cell death rate was only 35% in the non-treated or treated with the control peptide, and the cell death rate was 44% in cells treated with TSA (FIG. 5).
Three frozen primary AML patient samples were used for this study, and were obtained from Brigham and Women's Hospital at Boston, Mass., USA, under approved IRB protocol (No. 2011-P-000096/1). Culture conditions were adapted from a published protocol 28-31. In brief, the frozen AML samples were incubated in RPMI1640 medium without serum for 1 to 3 h after thawing and DNA fragments from dead cells were removed by washing. After three washes with the medium, 1×10^6 cells per well of 12-well plate were maintained in 1 ml of serum-free medium (StemSpan-H3000, Catalogue #09800, StemCell Technologies) supplied with StemSpan CC 100 cytokine cocktail (Catalogue #02690, StemCell Technologies) that supports 40-50% viability at 72 hours postthaw culturing based on our experience. These cells were then used for the down-regulation of SALL4 (see details below) and peptide treatment experiments.
SALL4 is critical for leukemic cell survival in the AML cell line NB4 (Yang, et al., Blood, 112:805-813 (2008)). Asked herein was whether this is also the case for primary human AML samples. Three SALL4/PTEN-expressing AML samples were selected for experiments in which cells were first tested under culture conditions that maintain/promote viability of AML cells 28-31. The SALL4-specific shRNA that has been validated in previous studies (Yang et al., PLoS One, 5:e10766 (2010); Yang, et al., Blood, 112:805-813 (2008); Yang et al., PNAS USA, 104:10494-10499 (2007)) was utilized in these AML patient samples (FIG. 11A). 48 hours after transduction, the viability of cells was determined by flow cytometry after staining with Annexin V and propidium iodide (PI). Live cells are Annexin V negative and PI negative, the double negative population. […] Furthermore, in a xenotransplant model, increased survival of leukemic cell recipient NOD/SCID/IL2rγ-null (NSG) mice following knocking down SALL4 expression in the primary AML samples was observed (FIG. 11C). Fatal AML with onset ranging from one to three months developed in all recipients receiving AML cells transduced with a scrambled control shRNA (n=7), while only 2 out of 6 mice receiving SALL4 shRNA-treated primary AML developed leukemia. While the median survival of scrambled shRNA control recipient mice (n=7) was 33 days, the median survival of SALL4 shRNA recipient mice (n=6) was 109 days (P=0.01). The transplanted leukemia disease was characterized by immature blasts with human CD45 expression in peripheral blood, bone marrow, and tissues such as liver and spleen (FIG. 11D to 11F).
Next tested was whether a therapeutic effect could be achieved by using the wild type peptide in primary human AML samples. The same SALL4/PTEN expressing primary AML samples were selected for experiments under the same culture conditions as mentioned above. Leukemic cells were subjected to three treatment regimes: peptide (wild type or scrambled), peptide plus PTEN inhibitor, or HDAC inhibitor (TSA). To assist peptide delivery into cells, a carrier agent, Pep-1 was used for all the experiments, and control treated cells were given pep-1 alone (mock). […]

[3] = tested on: SNU-387 cells; test: Cell viability assay (MTT/MTS); format: cell-based, human; settings: for cell viability / number of viable cells: SNU-387 (low/no SALL4), 72 h
Procedure: Cell viability was determined 72 hours after peptide treatments. Absorbance at 490 nm is directly correlated to cell viability. Wild type functional SALL4 peptide (wt), mutant non-functional SALL4 peptide (Mut.), trichostatin A (TSA), scrambled control peptide (Scr.), wild type peptide+PTEN inhibitor SF1670 (wt+Inh.) were given to the cells at the indicated concentration. PTEN inhibitor concentration was 400 nM. (31C, 31D) Western blot analyses of the effects of peptides on PTEN, AKT, and pAKT expression on SNU-398 (31C) and SNU-387 (31D) cells 72 hours following peptide treatments. 20 μM of wt or Scr. peptide or 100 nM of TSA was used. PTEN inhibitor concentration was 400 nM. (31E) Representative images show NOD/SCID mice transplanted with Scr peptide- and wt peptide-treated SNU-398 cells (left) and the dissected subcutaneous tumors (right). Arrow indicates subcutaneous tumor. (31F) Growth curve of subcutaneous tumors (left panel) and tumor weight of tumors dissected at day 26 post-transplantation (right panel). Results are mean±s.d. n=5; * P<0.05. (31G) Representative images show NOD/SCID mice transplanted with 3 million SNU-398 cells at the left flank and treated intraperitoneally for five consecutive days with 56 mg/kg body weight TAT-Mut. peptide or 60 mg/kg body weight wt peptide (top panel) and the dissected subcutaneous tumors (bottom). (31H) Tumor weight of tumors dissected at day 18 post-transplantation and post-treatment of mice treated intraperitoneally with TAT fusion peptides as described in 5 g. Results are mean±s.d. n=5; * P<0.05.
Cell viability assay (MTT) (Invitrogen) was performed according to the manufacturer's instructions. Briefly—10000 cells were seeded in 100 ul medium in 96 well plates. The next day cells were treated as indicated on the figures. At the designated time after the treatment 20 ul of 5 mg/ml MTT solution was added to each well. After 3.5 h incubation at 37 C the medium was removed and the reaction was terminated with a solution of 4 mM HCl, 0.1% Nondet P-40 (NP40) all in isopropanol in dark on orbital shaker for […]. at room temperature. The absorbance was read at 590 nm with a reference filter of 620 nm in Spectromax M3 (ABI) spectrophotometer.
7000 cells were seeded in each wells of a microtiter plate in 100 μL of complete medium. Cells from each treatment were seeded in duplicate. Controls using the same medium without cells were set up in parallel. At various time points, 317 μg/mL of 3-(4,5-dimethylthiazol-2-yl)-5-(3-carboxymethoxyphenyl)-2-(4-sulfophenyl)-2H-tetrazolium (CellTiter96® AQueous One Solution Cell Proliferation Assay, Promega) was added to each well. After four hours incubation of the tetrazolium salt, absorbance at 490 nm was read by a microplate reader.

Compound | PTEN expression [1] | pAKT on Ser 473 [1] | cell death rate ([2]; primary AML, Annexin V/PI) | cell viability / number of viable cells [3] | also measured
CC(/C=C/C(=O)NO)=C\[C@@H](C)C(=O)c1ccc(N(C)C)cc1 [TSA, Trichostatin A, reference compound] | increased PTEN expression | significantly reduced | 44% |  | cell viability ([2]; primary AML, fourth day, Pep-1 carrier, untreated set as 100 (Example 2)): 54.7%
CTATTTAGCCAAAGGCAAA (short hairpin RNA, chemistry and delivery not given here, further chemistry not given here) [E5 shRNA] |  |  |  |  | cell viability upon SALL4 knockdown ([3]; SNU-387, MTS): number of viable cells was similar
GATGCCTTGAAACAAGCCAAGCTACCTCA (chemistry not given here) [compound 7412, SALL4 shRNA used in primary AML cells] |  |  |  |  | viability after SALL4 knock-down [2]: 80.9%; increase in cell apoptosis and cell death ([2]; primary AML, Annexin V/PI, after SALL4 knock-down): 2 fold
H-MSRRKQAKPQHI-OH [wt peptide, MSRRKQAKPQHI] | increased PTEN expression | significantly reduced | 56% | had no effects; also recorded: did not affect the cell viability | cell viability / number of viable cells ([3]; listed as SALL4 peptide): had no effect; cell viability / number of viable cells ([3]; listed as wt): no change in cell viability; cell viability ([2]; human, 96 h): 55.3%
Scr peptide: same 12 amino acids as the wt peptide, but in a scrambled sequence; negative control (SRMRQKIHPKIQ) [reference compound] | No effect | No effect | the same value as the untreated | no change in cell viability | cell viability [2]: over 97%
